Experimental data published in ChEMBL document CHEMBL4627313, “Discovery of sulfonamides and 9-oxo-2,8-diazaspiro[5,5]undecane-2-carboxamides as human kynurenine aminotransferase 2 (KAT2) inhibitors” (Bioorg Med Chem Lett, 2020).

target: T1, Kynurenine/alpha-aminoadipate aminotransferase, mitochondrial (Homo sapiens, UniProt Q8N5Z0); test: Reversible inhibition of recombinant human KAT2 assessed as reduction in kynurenic acid formation using L-kynurenine as substrate by fluorescence assay
Target sequence in this assay (Q8N5Z0 whole entry): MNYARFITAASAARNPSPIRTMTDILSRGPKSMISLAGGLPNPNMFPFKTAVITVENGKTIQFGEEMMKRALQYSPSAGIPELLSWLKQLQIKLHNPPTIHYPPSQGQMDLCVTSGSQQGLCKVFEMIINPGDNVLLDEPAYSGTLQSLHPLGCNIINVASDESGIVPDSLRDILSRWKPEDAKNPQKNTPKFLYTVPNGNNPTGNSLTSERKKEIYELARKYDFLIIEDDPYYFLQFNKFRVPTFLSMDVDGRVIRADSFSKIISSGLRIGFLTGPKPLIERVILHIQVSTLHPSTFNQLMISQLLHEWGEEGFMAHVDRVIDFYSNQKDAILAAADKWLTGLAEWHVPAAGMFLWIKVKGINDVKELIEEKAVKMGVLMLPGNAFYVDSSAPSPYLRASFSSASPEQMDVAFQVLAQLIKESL

| IC50 [µM] | Structure (SMILES) |
| --- | --- |
| 16 | O=S(=O)(Nc1nnc(C2(c3ccccc3)CC2)s1)c1cc(F)cc(F)c1 |
| 1.6 | CC(C)C(Cc1nnc(NS(=O)(=O)c2cc(F)cc(F)c2)s1)c1cccc(F)c1 (stereo unspecified) |
| 8 | CCc1cccc(NC(=O)N2CCCC3(CCC(=O)N(CCC(C)C)C3)C2)c1 (racemic) |
| 0.81 | Cc1ccc(NC(=O)N2CCCC3(CCC(=O)N(CCC(C)C)C3)C2)cc1Cl (racemic) |
| 4.4 | CCc1cccc(NC(=O)N2CCCC3(CCC(=O)N(CCC(C)C)C3)C2)c1 (stereo in doubt; 7 E1) |
| 97 | CCc1cccc(NC(=O)N2CCCC3(CCC(=O)N(CCC(C)C)C3)C2)c1 (stereo in doubt; 7 E2) |
| 4.5 | Cc1cc(C)cc(NC(=O)N2CCCC3(CCC(=O)N(C4CC4)C3)C2)c1 (stereo in doubt; 9 E1) |
| 74.9 | Cc1cc(C)cc(NC(=O)N2CCCC3(CCC(=O)N(C4CC4)C3)C2)c1 (stereo in doubt; 9 E2) |
| 2.4 | O=C1CCC2(CCCN(C(=O)Nc3ccc(F)c(Cl)c3)C2)CN1CC1CC1 (stereo in doubt; 10 E1) |
| 96.5 | O=C1CCC2(CCCN(C(=O)Nc3ccc(F)c(Cl)c3)C2)CN1CC1CC1 (stereo in doubt; 10 E2) |
| > 100 | COc1ccc(NC(=O)N2CCCC3(CCC(=O)N(C4CC4)C3)C2)cc1 (stereo in doubt; 11 E1) |
| 15.5 | COc1ccc(NC(=O)N2CCCC3(CCC(=O)N(C4CC4)C3)C2)cc1 (stereo in doubt; 11 E2) |

target: T1, Kynurenine/alpha-aminoadipate aminotransferase, mitochondrial; test: Reversible inhibition of recombinant human KAT2 assessed as reduction in kynurenic acid formation at 50 uM using L-kynurenine as substrate by fluorescence assay relative to control
Target sequence in this assay (Q8N5Z0 30-425 limits assumed): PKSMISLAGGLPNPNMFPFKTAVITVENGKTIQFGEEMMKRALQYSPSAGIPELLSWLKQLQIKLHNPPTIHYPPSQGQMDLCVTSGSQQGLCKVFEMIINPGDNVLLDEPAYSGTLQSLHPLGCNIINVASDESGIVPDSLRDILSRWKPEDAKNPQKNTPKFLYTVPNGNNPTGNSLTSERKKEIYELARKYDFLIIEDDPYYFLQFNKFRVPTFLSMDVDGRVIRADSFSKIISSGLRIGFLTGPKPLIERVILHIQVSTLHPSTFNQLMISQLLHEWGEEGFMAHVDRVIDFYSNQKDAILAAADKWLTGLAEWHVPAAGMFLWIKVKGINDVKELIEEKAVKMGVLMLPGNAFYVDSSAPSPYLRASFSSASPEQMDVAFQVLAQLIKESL

| inhibition [%] | Structure (SMILES) |
| --- | --- |
| 88 | O=S(=O)(Nc1nnc(C2(c3ccccc3)CC2)s1)c1cc(F)cc(F)c1 |
| 57 | O=S(=O)(NC1CCNC1)c1ccc(Cl)cc1C(F)(F)F (stereo unspecified) |
| 47 | O=S(=O)(Nc1nnc(CC2CCCC2)o1)c1ccccc1 |

target: T1, Kynurenine/alpha-aminoadipate aminotransferase, mitochondrial; test: Binding affinity to recombinant human KAT2 assessed as change in temperature by thermal shift assay
Target sequence in this assay (Q8N5Z0 30-425 limits assumed): as above

| deltaT [°C] | Structure (SMILES) |
| --- | --- |
| 1.7 | O=S(=O)(Nc1nnc(C2(c3ccccc3)CC2)s1)c1cc(F)cc(F)c1 |
